From PMC11530827, “Characterization of a cytochrome P450 that catalyzes the O-demethylation of lignin-derived benzoates” (The Journal of Biological Chemistry, 2024)

Assays:
PbdA S87A/S237A [1] = target: T1, PbdA S87A/S237A (Rhodococcus jostii, UniProt Q0SCI3, S235A/S85A); assay: Substrate binding to PbdA S87A/S237A variant by spectral titration; parameters: species or system Rhodococcus jostii RHA1
T1 construct: hexaHis (N, cleaved yes); made in house; host or cells: PbdA variant: E. coli BL-21 λ (DE3); PbdB: Rhodococcus jostii RHA1
T1 sequence (Q0SCI3 entry or part of it S85A/S235A): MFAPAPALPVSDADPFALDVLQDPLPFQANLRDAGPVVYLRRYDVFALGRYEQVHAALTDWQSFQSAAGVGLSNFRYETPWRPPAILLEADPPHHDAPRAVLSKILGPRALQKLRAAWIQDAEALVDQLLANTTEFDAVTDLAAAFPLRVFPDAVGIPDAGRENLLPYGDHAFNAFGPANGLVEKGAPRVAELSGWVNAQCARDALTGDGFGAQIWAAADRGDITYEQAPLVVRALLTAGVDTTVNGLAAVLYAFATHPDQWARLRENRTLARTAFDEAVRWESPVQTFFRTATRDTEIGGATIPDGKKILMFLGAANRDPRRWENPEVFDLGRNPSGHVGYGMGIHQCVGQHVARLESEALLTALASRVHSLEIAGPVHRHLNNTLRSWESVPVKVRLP
Method: (§1) UV-visible spectroscopy was conducted with a Cary 60 spectrophotometer equipped with a thermostatted cuvette holder at 25 °C. Scans of purified proteins diluted in 20 mM Mops, I = 0.1 M, pH 7.2 were taken between 250 and 700 nm. Heme concentration was calculated as described previously ([35]). Carbon monoxide binding was determined by reduction of PbdA diluted in 20 mM Mops, I = 0.1 M, pH 7.2 as above by a few grains of […]. CO was bubbled into the reduced enzyme for approximately 60 s at a rate of one bubble per second. Dissociation constants (Kd) were determined by titration of ligands diluted into enzyme buffer from 1 M stocks prepared in dimethyl sulfoxide into PbdA diluted in 20 mM Mops, I = 0.1 M, pH 7.2. Spectra take upon addition of substrate were subtracted from the spectrum of the enzyme, and peak-to-trough distance was plotted by ligand concentration. Kd values were determined by fitting a hyperbolic equation to the data as described previously ([23], [36]). The proportion of high-spin heme iron was determined using the approximate peak-to-trough extinction coefficient (ε ≈ 100 mM^−1 cm^−1) ([36]).

PbdA S87A = target: T2, PbdA S87A (Rhodococcus jostii, UniProt Q0SCI3, S85A); assay: Substrate binding to PbdA S87A variant by spectral titration; parameters: species or system Rhodococcus jostii RHA1
T2 construct: hexaHis (N, cleaved yes); made in house; host or cells: PbdA variant: E. coli BL-21 λ (DE3); PbdB: Rhodococcus jostii RHA1
T2 sequence (Q0SCI3 entry or part of it S85A): as the sequence (Q0SCI3 entry or part of it S85A/S235A) above, with A235S counted along it
Method: as §1

PbdA S237A [2] = target: T3, PbdA S237A (Rhodococcus jostii, UniProt Q0SCI3, S235A); assay: Activity and coupling assay of PbdA S237A variant with PbdB; assay type: biochemical, Rhodococcus jostii RHA1
T3 construct: hexaHis (N, cleaved yes); made in house; host or cells: PbdA variant: E. coli BL-21 λ (DE3); PbdB: Rhodococcus jostii RHA1
T3 sequence (Q0SCI3 entry or part of it S235A): as the sequence (Q0SCI3 entry or part of it S85A/S235A) above, with A85S counted along it
Method: (§2) For activity measurements 0.25 to 1 μM of PbdA and PbdB were combined in a 200 μl cuvette in 20 mM Mops, pH 7.2 with substrate diluted in the same buffer. NADH was added to 350 μM to initiate the reaction. For HPLC analysis, enzymatic reactions were acidified by adding acetic acid to 10% final concentration, centrifuged (16,000×g for 10 min), and filtered through a 0.2 μm polytetrafluoroethylene membrane. Samples were run over a Luna 5 μm C18(2) 100 Å 150 × 3 mm column (Phenomenex) at 0.7 ml min^−1 by a Waters 2695 separation HPLC module. Samples were eluted with a 16.8 ml linear gradient from 1% methanol plus 0.1% formic acid in water to 100% methanol plus 0.1% formic acid and monitored at 280 nm with a Waters 2996 photodiode array detector. Concentrations were determined by interpolation on a standard curve of 0 to 1 mM of authentic standard. NADH concentration was measured by absorbance at 340 nm, ε = 6.22 mM^-1 cm^-1. Coupling was calculated from the ratio of rate of aromatic turnover, as determined by HPLC, and the rate of NADH oxidation, determined spectroscopically. Buffer ionic strength was adjusted by addition of NaCl, as appropriate. Apparent steady-state kinetic parameters were calculated by fitting Michaelis–Menten equations to initial velocity of reactions at various concentrations of aromatic substrate (LEONORA).
(§3) ^aExperiments were performed using air-saturated MOPS (I = 0.1 M), pH 7.2, at 25 °C. The rate of aromatic substrate turnover was based on the appearance of O-demethylated product. Standard deviation is shown in parentheses.

PbdA S87A/S237A [3] = target: T1, PbdA S87A/S237A; assay: Activity and coupling assay of PbdA S87A/S237A variant with PbdB; assay type: biochemical, Rhodococcus jostii RHA1
Method: as §2, §3

PbdA R84M = target: T4, PbdA R84M (Rhodococcus jostii, UniProt Q0SCI3, R82M); assay: Substrate binding to PbdA R84M variant by spectral titration; parameters: species or system Rhodococcus jostii RHA1
T4 construct: hexaHis (N, cleaved yes); made in house; host or cells: PbdA variant: E. coli BL-21 λ (DE3); PbdB: Rhodococcus jostii RHA1
T4 sequence (Q0SCI3 entry or part of it R82M): as the sequence (Q0SCI3 entry or part of it S85A/S235A) above, with R82M, A85S, A235S counted along it
Method: as §1

PbdA = target: T5, PbdA (Rhodococcus jostii, UniProt Q0SCI3)
T5 sequence (Q0SCI3 1-400): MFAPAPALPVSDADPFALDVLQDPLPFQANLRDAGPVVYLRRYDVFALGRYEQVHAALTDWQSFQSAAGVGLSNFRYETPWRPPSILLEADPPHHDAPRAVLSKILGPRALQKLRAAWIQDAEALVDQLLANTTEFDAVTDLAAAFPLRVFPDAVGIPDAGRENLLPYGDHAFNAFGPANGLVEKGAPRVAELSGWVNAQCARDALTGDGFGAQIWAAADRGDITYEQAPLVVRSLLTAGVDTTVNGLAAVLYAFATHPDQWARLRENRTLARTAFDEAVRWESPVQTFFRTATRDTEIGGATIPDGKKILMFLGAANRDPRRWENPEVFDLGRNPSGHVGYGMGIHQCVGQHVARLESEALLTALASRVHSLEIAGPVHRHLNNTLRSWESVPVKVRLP
Method: We then measured coupling under optimum conditions for other substrates. […] Finally, we measured the apparent steady-state kinetic parameters of the PbdA reaction under conditions of maximal coupling (Fig. S4).
as §2

PbdA S237A [4] = target: T3, PbdA S237A; assay: Substrate binding to PbdA S237A variant by spectral titration; parameters: species or system Rhodococcus jostii RHA1
Method: as §1

[5] = air-saturated MOPS (I = 0.1 M), pH 7.2, 25 °C
[6] = appearance of O-demethylated product

How did the Kd (PbdA S87A/S237A [1]) turn out when COc1ccc(C(=O)O)cc1 [p-MBA, p-methoxybenzoate] was run?
Its Kd is 70 µM.

And the “ΔG°” value (PbdA S87A/S237A [1]; S87A/S237A variant, binding energy)?
The value was -5.7 kcal/mol.

What about the “ΔΔG°” value (PbdA S87A/S237A [1]; S87A/S237A variant, comparison of ΔG° of variant to wild type) of the same molecule?
Its value is 1.7 kcal/mol.

And the Kd (PbdA S87A)?
Its Kd is 50 µM.

And the “ΔG°” value (PbdA S87A; S87A variant, binding energy)?
Its value is -5.9 kcal/mol.

And the “ΔΔG°” value (PbdA S87A; S87A variant, comparison of ΔG° of variant to wild type)?
The value was 1.5 kcal/mol.

And the Coupling (PbdA S237A [2])?
Its Coupling is 80 (2) %.

What about the Specific activity (PbdA S237A [2]; O-demethylation) of the same molecule?
The Specific activity was 2600 (400) U μg P450^-1.

And the NADH depletion rate (PbdA S237A [2]; [5])?
Its NADH depletion rate is 3600 (600) U mg P450^-1.

And the “Rate of Aromatic turnover” value (PbdA S237A [2]; [6])?
The value was 2600 (400) U mg P450^-1.

What about the Coupling (PbdA S87A/S237A [3]) of the same molecule?
Its Coupling is 40 (2) %.

And the Specific activity (PbdA S87A/S237A [3]; O-demethylation)?
The Specific activity was 180 (10) U μg P450^-1.

And the NADH depletion rate (PbdA S87A/S237A [3]; [5])?
Its NADH depletion rate is 400 (30) U mg P450^-1.

And the “Rate of Aromatic turnover” value (PbdA S87A/S237A [3]; [6])?
The value was 170 (10) U mg P450^-1.

And the Kd (PbdA R84M)?
The Kd was 36 µM.

And the “ΔG°” value (PbdA R84M; R84M variant, binding energy)?
The value was -6.1 kcal/mol.

And the “ΔΔG°” value (PbdA R84M; R84M variant, comparison of ΔG° of variant to wild type)?
The value was 1.3 kcal/mol.

And the “kcat (apparent)” value (PbdA; WT PbdA with PbdB, air-saturated Mops (I = 0.1 M), pH 7.2, 25 °C, SD in parentheses)?
Its value is 0.37 (0.02) s^−1.

And the Specific activity (PbdA; WT PbdA, O-demethylation, SD in brackets)?
The Specific activity was 2700 (100) U μg P450^-1.

And the NADH depletion rate (PbdA; WT PbdAB, air-saturated MOPS (I = 0.1 M), pH 7.2, 25 °C, SD in parentheses)?
The NADH depletion rate was 2700 (100) U mg P450^-1.

What about the “Rate of Aromatic turnover” value (PbdA; WT PbdAB, appearance of O-demethylated product (disappearance of p-EB), SD in parentheses) of the same molecule?
Its value is 2700 (200) U mg P450^-1.

What about the Coupling (PbdA; WT PbdAB, ratio of aromatic turnover rate to NADH oxidation rate) of the same molecule?
The Coupling was 100 (3) %.

What about the Km (PbdA; read-out: KM (apparent), WT PbdA with PbdB, air-saturated Mops (I = 0.1 M), pH 7.2, 25 °C, SD in parentheses) of the same molecule?
The Km was 18 µM.

What about the Kd (PbdA S237A [4]) of the same molecule?
The Kd was 29 µM.

And the “ΔG°” value (PbdA S237A [4]; S237A variant, binding energy)?
The value was -6.2 kcal/mol.

And the “ΔΔG°” value (PbdA S237A [4]; S237A variant, comparison of ΔG° of variant to wild type)?
The value was 1.2 kcal/mol.
